Measurements reported in the supplement of paper PMC11616607.

What was measured:
Test in all cases: drug sensitivity score (DSS) from 5-point dose-response viability curve (DSS (area-under-curve based score)); higher = more sensitive (stronger growth inhibition or killing); extreme values may be limits of the assay
Settings in all cases: exposure time: 72 h; concentration range: 5 concentrations over 10,000-fold range
OV90 = tested on: OV90
How it was run: (§1)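 Drugs in DMSO or water were acoustically dispensed (Echo 550) into 384-well plates at five concentrations across a 10,000-fold range. Ovarian cancer and normal ovarian cells (1,500 per well) were then added, incubated for 3 days at 37°C with 5% CO2, and read for viability by CellTiter-Glo luminescence on a PHERAstar FS. From these readings, Breeze software derived a drug sensitivity score per cell line and drug, with higher values meaning more sensitive and zero meaning no response.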

HOSE2C = tested on: HOSE2C
How it was run: as §1

OVCAR8 = tested on: OVCAR8
How it was run: as §1

HOSE1C = tested on: HOSE1C
How it was run: as §1

Kuramochi = tested on: Kuramochi
How it was run: as §1

OVCAR5 = tested on: OVCAR5
How it was run: as §1

JHOS2 = tested on: JHOS2
How it was run: as §1

COV362 = tested on: COV362
How it was run: as §1

CAOV3 = tested on: CAOV3
How it was run: as §1

COV318 = tested on: COV318
How it was run: as §1

Ovsaho = tested on: Ovsaho
How it was run: as §1

OVCAR4 = tested on: OVCAR4
How it was run: as §1

Row | Structure (SMILES) | drug sensitivity score (OV90) | drug sensitivity score (HOSE2C) | drug sensitivity score (OVCAR8) | drug sensitivity score (HOSE1C) | drug sensitivity score (Kuramochi) | drug sensitivity score (OVCAR5) | drug sensitivity score (JHOS2) | drug sensitivity score (COV362) | drug sensitivity score (CAOV3) | drug sensitivity score (COV318) | drug sensitivity score (Ovsaho) | drug sensitivity score (OVCAR4)
1 | C=CCc1cccc(/C=N/NC(=O)CN2CCN(Cc3ccccc3)CC2)c1O [PAC-1] | 2.6 | 2.7 | 4 | 3.1 | 2.1 | 1.7 | 0.7 | 0.4 | 3.2 | 0.2 | 4 | 3
2 | CN(C)C1CCN(C(=O)c2ccc(NC(=O)Nc3ccc(-c4nc(N5CCOCC5)nc(N5CCOCC5)n4)cc3)cc2)CC1 [Gedatolisib] | 15.4 | 13.1 | 7.5 | 17.9 | 11.4 | 12.3 | 7.4 | 4.8 | 10 | 3.2 | 13.4 | 14.8
3 | CC(=O)c1cc2c(o1)C(=O)c1ccccc1C2=O [Napabucasin] | 17.9 | 24.2 | 16.3 | 28.9 | 16.7 | 21.3 | 18.6 | 12.4 | 18.2 | 16.2 | 17.3 | 19
4 | N#Cc1ccc(COC[C@H]2O[C@@H](n3c(NCc4ccc(Cl)c(Cl)c4)nc4c(N)ncnc43)[C@H](O)[C@@H]2O)cc1 | 3.8 | 5.6 | 5.5 | 2.7 | 1.4 | 4.4 | 1 | 0.5 | 3.8 | 0.1 | 4.5 | 0.3
5 | COc1cc2ncnc(Nc3ccc(F)c(Cl)c3)c2cc1OCCCN1CCOCC1 [Gefitinib] | 4 | 0.3 | 3.3 | 0 | 1.8 | 5.6 | 1.6 | 0.3 | 7.2 | 0.5 | 3.8 | 1.9
6 | Cc1c(-c2ccc(N3CCc4cccc(C(=O)Nc5nc6ccccc6s5)c4C3)nc2C(=O)O)cnn1CC12CC3CC(CC(C3)C1)C2 | 7.6 | 5.8 | 0.8 | 20.6 | 0 | 1 | 0 | 0 | 5.1 | 0 | 2.5 | 2.1
7 | CC(O)(CS(=O)(=O)c1ccc(F)cc1)C(=O)Nc1ccc(C#N)c(C(F)(F)F)c1 (configuration not stated) [Bicalutamide] | 0 | 0 | 0.3 | 8.4 | 0.2 | 0.7 | 0 | 0 | 0 | 0 | 0 | 0.5
8 | Cc1cc(Nc2cc(CN3CCOCC3)c3nc(C)c(Cc4ccc(Cl)cc4F)n3n2)n[nH]1 [Gandotinib] | 4.1 | 8.9 | 7.1 | 5.9 | 5.9 | 5.8 | 3.1 | 4.6 | 5.9 | 4.9 | 6.7 | 4
9 | Cn1cc(-c2cnn3c(N)c(Br)c([C@@H]4CCCNC4)nc23)cn1 [MK-8776] | 1.1 | 5.1 | 1 | 5.1 | 0 | 0.4 | 0 | 0 | 1.3 | 0 | 0 | 0
10 | Cc1cc(C(C)Nc2ccccc2)c2nc(N3CCOCC3)cc(=O)n2c1 (configuration not stated) [TGX-221] | 0.2 | 0 | 1.2 | 0 | 7.9 | 2.1 | 0 | 0.3 | 0.8 | 0 | 7.8 | 1.7
11 | Nc1cc(F)ccc1NC(=O)/C=C/c1cnn(C/C=C/c2ccccc2)c1 [RGFP966] | 1.9 | 2.4 | 2.3 | 1.1 | 0.4 | 3.3 | 0.1 | 0 | 0.1 | 0.6 | 0 | 2.4
12 | CO[C@H]1C[C@@H]2CC[C@@H](C)[C@@](O)(O2)C(=O)C(=O)N2CCCC[C@H]2C(=O)O[C@H]([C@H](C)C[C@@H]2CC[C@@H](OP(C)(C)=O)[C@H](OC)C2)CC(=O)[C@H](C)/C=C(\C)[C@@H](O)[C@@H](OC)C(=O)[C@H](C)C[C@H](C)/C=C/C=C/C=C/1C [Ridaforolimus] | 10.3 | 1 | 6.8 | 2.3 | 3.2 | 4.6 | 4.3 | 0 | 8.7 | 0.6 | 4.6 | 2.6
13 | Cc1ccc(NC(=O)c2ccc(CN3CC[C@H](N(C)C)C3)c(C(F)(F)F)c2)cc1Nc1nccc(-c2cncnc2)n1 [Bafetinib] | 3 | 0 | 0 | 0 | 0 | 0 | 0 | 0 | 0 | 0 | 0 | 0
14 | Cc1cc(-c2nc(-c3ccc(OC(F)(F)F)cc3)no2)nn1Cc1ccnc(N2CCN(C3CC3)CC2)c1 [BAY 87-2243] | 23.3 | 0 | 28.8 | 0 | 2.7 | 4.8 | 0 | 0 | 8.4 | 2.7 | 1.6 | 4.7
15 | O=c1ncn2nc(Sc3ccc(F)cc3F)ccc2c1-c1c(Cl)cccc1Cl [Neflamapimod] | 0.4 | 0 | 0.9 | 0.1 | 2 | 0.8 | 0 | 0 | 0 | 0.8 | 0 | 0.4
16 | Cc1cc(Nc2nc(N[C@@H](C)c3ncc(F)cn3)ncc2Cl)[nH]n1 [AZD1480] | 0 | 2.8 | 0 | 0 | 0 | 0.5 | 0 | 0 | 0 | 0 | 0.7 | 0.5

Row | Structure (SMILES) | drug sensitivity score (OV90) | drug sensitivity score (HOSE2C) | drug sensitivity score (OVCAR8) | drug sensitivity score (HOSE1C) | drug sensitivity score (Kuramochi) | drug sensitivity score (OVCAR5) | drug sensitivity score (JHOS2) | drug sensitivity score (COV362) | drug sensitivity score (CAOV3) | drug sensitivity score (COV318) | drug sensitivity score (Ovsaho) | drug sensitivity score (OVCAR4)
17 | CN1CCN(CCOc2cc(OC3CCOCC3)c3c(Nc4c(Cl)ccc5c4OCO5)ncnc3c2)CC1 [Saracatinib] | 5 | 5 | 5.1 | 2 | 9.7 | 9.2 | 3.1 | 5.6 | 8.2 | 0.4 | 7 | 3.8
18 | COc1cc2ncnc(Oc3cccc(NC(=O)Nc4cc(C(C)(C)C(F)(F)F)on4)c3)c2cc1OC | 2.4 | 0 | 0 | 1.3 | 0.4 | 3 | 1.5 | 0 | 0 | 0 | 0 | 0
19 | Nc1cccc2c1C(=O)N(C1CCC(=O)NC1=O)C2=O (configuration not stated) [Pomalidomide] | 0 | 0 | 0 | 0 | 0 | 0 | 0 | 0 | 0 | 0 | 0 | 0
20 | CO[C@@H](C(=O)N1Cc2[nH]nc(NC(=O)c3ccc(N4CCN(C)CC4)cc3)c2C1)c1ccccc1 [Danusertib] | 4.9 | 12.5 | 8.7 | 7.4 | 11.1 | 7.2 | 3.1 | 5.6 | 23.5 | 4.3 | 14.7 | 8.7
21 | C#Cc1cccc(Nc2ncnc3cc4c(cc23)OCCOCCOCCO4)c1 [Icotinib] | 0 | 0 | 0 | 0 | 0.2 | 4.3 | 0.4 | 0 | 5.7 | 0.2 | 1.1 | 1.7
22 | Cc1cc2c(C(=O)NC[C@H](C)c3ccccc3)c(O)c(O)cc2c(O)c1-c1c(C)cc2c(C(=O)NC[C@H](C)c3ccccc3)c(O)c(O)cc2c1O [Sabutoclax] | 11.2 | 16.1 | 15.9 | 18 | 6.7 | 10.8 | 8.1 | 9 | 15.4 | 8.8 | 8.2 | 8.3
23 | COC(=O)C[C@](O)(CCCC(C)(C)O)C(=O)O[C@@H]1C(OC)=C[C@]23CCCN2CCc2cc4c(cc2[C@H]13)OCO4 [Omacetaxine] | 23.3 | 18.6 | 24.1 | 31 | 18.3 | 23.4 | 19.3 | 19.2 | 28.7 | 17.4 | 19.5 | 20.9
24 | CCC1(c2ccc(N)cc2)CCC(=O)NC1=O (configuration not stated) [Aminoglutethimide] | 0 | 0 | 0 | 0.2 | 0 | 0 | 0 | 0 | 0.2 | 0 | 0 | 0
25 | C=CC(=O)Nc1cccc(Nc2nc(Nc3ccc(OCCOC)cc3)ncc2F)c1 [Spebrutinib] | 1.3 | 0.4 | 0 | 0 | 1.6 | 1.2 | 1.9 | 0.9 | 0.3 | 2 | 2.2 | 2
26 | CC(C)(C)c1cnc(CSc2cnc(NC(=O)C3CCNCC3)s2)o1 [SNS-032] | 16.1 | 12.1 | 20 | 21.2 | 15.8 | 18.5 | 23.3 | 13.9 | 16.2 | 11 | 18.9 | 13.9
27 | CNS(=O)(=O)Nc1nccc(Cc2c(C)c3ccc(Oc4ncccn4)cc3oc2=O)c1F | 6.3 | 0 | 0 | 0 | 0 | 0 | 0 | 0 | 3.3 | 0 | 0.3 | 1.7
28 | CONC(=O)c1ccccc1Nc1cc(Nc2cc(C)nn2C(C)C)ncc1Cl | 0 | 0 | 0 | 0 | 1.4 | 0.3 | 0.1 | 0.2 | 0 | 0 | 3.1 | 0.1
29 | Nc1nc2[nH]cnc2c(=S)[nH]1 [Thioguanine] | 6.3 | 2.4 | 12.7 | 3.4 | 7.2 | 13.4 | 2.3 | 9.4 | 11.9 | 0.7 | 8 | 9.9
30 | COc1cc(C)[nH]c(=O)c1CNC(=O)c1c(C)n([C@H](C)C2CCOCC2)c2ccccc12 [CPI-360] | 0.6 | 0 | 0 | 0 | 0 | 0.8 | 0.2 | 0 | 0 | 0 | 0 | 0
31 | O=C(Nc1nc2cccc(-c3ccc(CN4CCS(=O)(=O)CC4)cc3)n2n1)C1CC1 [Filgotinib] | 3.2 | 0 | 2.5 | 0.1 | 5.1 | 1.8 | 1.1 | 0.2 | 2.3 | 3.4 | 2.5 | 2.6
